Where two headings read alike, the source gives them in different places. Values belong to the molecule of their own block, whether it stands above or below them.
Tests used:
[1] = target: T1, amyloid (aggregated Aβ1-40) (Homo sapiens, UniProt P05067); test: Measurement of affinity with amyloid: inhibition of [125I]3′-I-BTA-0 binding; details: [125I]3′-I-BTA-0 400 pmol/L, amyloid 1 μmol/L, 22° C., 3 hours
T1 construct: Aβ1-40 (Peptide Institute, INC.) was dissolved in phosphate buffer (pH 7.4); purchased Peptide Institute, INC
T1 sequence (P05067 672-711 limits assumed): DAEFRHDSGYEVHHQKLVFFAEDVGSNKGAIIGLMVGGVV
Description: Affinity of the present compounds with amyloid was examined by the following in vitro binding tests.
(1) Aβ1-40 (Peptide Institute, INC.) was dissolved in phosphate buffer (pH 7.4) and shaken at 37° C. for 62-72 hours, to obtain a 1 mg/mL suspension of aggregated Aβ (hereinafter referred to as amyloid suspension in this Example).
(3) According to the method described in a literature (Wang, Y., et al., J. Labeled Compounds Radiopharmaceut. 44, 5239 (2001)), [^125I]2-(3′-iodo-4′-aminophenyl)benzothiazole (hereinafter referred to as […]) was prepared from a labeling precursor 2-(4′-aminophenyl)benzothiazole, and dissolved in ethanol.
(5) Samples in which [^125I]3′-I-BTA-0, each compound for evaluation and amyloid were dissolved in a 0.1% bovine serum albumin-containing phosphate buffer (pH 7.4) at final concentrations shown in Table 1-2 were prepared. The resulting samples were filled in each well (about 0.3 mL in volume) of a 96-well microplate.
(6) The microplate filled with the sample solutions was shaken at a given rate (400 rpm) at 22° C. for 3 hours. Then, each sample solution was filtered through a glass fiber filter (trade name: Mulutiscreen™-FC, manufactured by Millipore), to separate the [^125I]3′-I-BTA-0 attached to amyloid from the free [^125I]3′-I-BTA-0.
(7) The glass fiber filter used for the filtration of each sample solution was washed with a 0.1% bovine serum albumin-containing phosphate buffer (pH 7.4) (0.5 mL×5), and radioactivity of the glass fiber filter was measured with an autowell gamma system (manufactured by Aloka, Type: ARC-301B).
(8) Separately, a solution of containing 15 μmol/L of 6-Me-BTA-2, […] of [^125I]3′-I-BTA-0 and 1 μmol/L of Aβ1-40 were prepared and subjected to the same procedures as described above in (6) and (7) to measure a radioactivity level. The measured radioactivity level was defined as the background radioactivity level, and used in the calculation of the inhibition ratio (hereinafter referred to as BG).
(9) Using the radioactivity levels measured above in (7) and (8), the inhibition ratio was determined by the following formula (1-1).
A graph in which values converted by probit transformation from the obtained inhibition ratios were plotted relative to logarithms of concentrations of compounds for evaluation was prepared to obtain an approximate straight line by the least square method. Using the line, the concentration of each compound for evaluation was determined, at which the radioactivity level is half of the level of the sample free from each compound for evaluation, and was defined as a 50% inhibition concentration of each compound (hereinafter referred to as IC50% value). Using the value as an indicator, affinity of each compound for evaluation with amyloid (aggregated Aβ1-40) was evaluated.

[2] = system: Salmonella typhimurium TA98; test: Reverse mutation test (Ames test), TA98; format: cell-based
Description: (§1) In order to examine mutagenicity of Compound I-1, I-2, I-4 and I-5, reverse mutation test using Salmonella typhimurium TA98 and TA100 (hereinafter referred to as Ames test) was conducted.
(§2) The test was conducted without addition of S9mix and with addition of S9mix. Dimethylsulfoxide was used as a negative control. A positive control was 2-(2-furyl)-3-(5-nitro-2-furyl)acrylamide in case S9mix was not added, and 2-aminoanthracene in case S9mix was added.
(§3) The amount of each sample to be added to the test plate was 7 dosages (geometric ratio 4) with the maximum dose being 1250 μg/plate for Compounds I-1 and I-5, and 7 dosages (geometric ratio 3) with the maximum dose being 5000 μg/plate for Compounds I-2 and I-4. After a sample to be examined and a strain (TA98 or TA100), or a sample to be examined, S9mix and the strain were mixed together, the mixture was multilayered using soft agar on a medium of a test plate, and then incubated at 37° C. for 48 hours.

[3] = system: Salmonella typhimurium TA100; test: Reverse mutation test (Ames test), TA100; format: cell-based
Description: as §1, §2, §3

[4] = system: Salmonella typhimurium TA98 and TA100; test: Reverse mutation test (Ames test), overall judgment; format: cell-based; details: TA98 and TA100, with and without S9mix
Description: as §1, §2, §3
The numbers of reverse mutation colonies of the respective strains in the group treated with Compounds I-1, I-2, I-4 and I-5 were less than two times the number in the group treated with the negative control, regardless of addition of S9mix and the addition amount of a sample to be examined. From the aforementioned results, it is judged that Compounds I-1, I-2, I-4 and I-5 are negative in the Ames test and have no mutagenicity.

[5] = target: T2, amyloid (amylin) (Homo sapiens, UniProt P10997); test: Inhibition of binding of Thioflavin T to amyloid derived from amylin; details: Thioflavin T 5 μmol/L
T2 construct: Amylin (human) (manufactured by Wako) was dissolved in phosphate buffer (pH 7.4); purchased Wako
T2 sequence (P10997 34-70 limits assumed): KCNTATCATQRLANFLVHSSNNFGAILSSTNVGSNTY
Description: Amylin is an amyloid accumulating in pancreas of type II diabetes.
(3) The amyloid suspension was dissolved in 50 mM phosphate buffer (pH 7.4) at a concentration of amylin of 15 μM.
(4) Samples in which each compound for evaluation and amyloid were dissolved in a 50 mM phosphate buffer (pH 7.4) at final concentrations shown in Table 2-1 were prepared.
(5) A sample in which 100 μL of 50 mM phosphate buffer (pH 7.4) and 50 μL of 50 mM glycin-NaOH buffer (pH 8.5) were mixed was made as a blank, and subjected to the same procedure as in (4) and used for a calculation of inhibition ratio.
(6) The microplate filled with the sample solutions was left to stand still for 30 hours. Then, fluorescence strength of each sample solution was measured (measurement conditions: excitation wavelength of 446 nm, emission wavelength of 490 nm) with microplate reader (type: SPECTRA MAX GEMINI XS, manufactured by Molecular Devices) (hereinafter, A denotes the fluorescence strength in a sample with zero (0) concentration of each compound for evaluation, and B denotes the fluorescence strength in a sample with 1.5 μmol/L or higher concentration of each compound for evaluation).
(7) Using the fluorescence strength measured above in (6), the following formula (2-1): […]
was used to determine the inhibition ratio.

[6] = International Publication No. WO03/106439; cited from earlier work
[7] = [11C]-labeled, rats; cited from earlier work
[8] = [125I]-labeled, normal mice; cited from earlier work
[9] = Partition coefficient based on the octanol extraction method; format: physicochemical; details: octanol / 10 mmol/L phosphate buffer (pH 7.4)
Description: After the mixture was centrifuged with a low-speed centrifuge (2000 rpm×60 min.), the octanol layer and the water layer were sampled each in an amount of 1 mL, and subjected to measurement of radioactivity count with an autowell gamma system (manufactured by Aloka, Type: ARC-301B). Using the obtained radioactivity count, log Poctanol was calculated in accordance with the equation (1-2).

[10] = Transferability into brain and clearance; format: in vivo, male Wistar rats; details: rats, intravenous injection
Text: Three animals were used for Experiment I-20 and Comparative Experiment I-9, and two animals were used for Experiment I-21 at the respective time points.

[11] = target: T1, amyloid (aggregated Aβ1-40); test: Measurement of binding to amyloid (radiolabelled compound, glass fiber filtration); details: amyloid 2.5-1000 nmol/L, 22° C., 3 hours
Description: (7) A relation between the amount of the Compound I-6 binding to amyloid and the amount of added amyloid was evaluated from the measurement results of (6). Unspecific binding was determined using a sample to which the Compound I-2 (non-RI labeled compound) was added to become 100 nM (at a final concentration) above in (4) (Example I-7).
(8) Using [^125I]-IMPY synthesized in the above Reference Example I-6, the same procedure as the above (2) to (6) were carried out to obtain control data (Comparative Example I-1).
A relation between the concentration of amyloid in the sample solution and the radioactive count on the glass fiber filter measured above in (6) is shown in FIG. 1-11. The radioactivity on the glass fiber was increased proportionally to the concentration (addition amount) of amyloid (Example I-7). […] Therefore, the radioactive count on the glass fiber is a value reflecting the amount of the compound attached to amyloid, and the slope of the graph which plotted the radioactive count relative to the concentration of amyloid is a value which can be an index representing the intensity of binding to amyloid.

[12] = target: T3, amyloid (aggregated Aβ1-40) injected into amygdaloid nucleus (Homo sapiens, UniProt P05067); test: Confirmation of imaging of amyloid in brain (autoradiogram of brain slice, Aβ1-40 injected rat); format: in vivo, male Wistar rat; details: tail vein, 16 MBq equivalent, brain removed 60 minutes after injection
T3 construct: Aβ1-40 (Peptide Institute, INC.) was dissolved in phosphate buffer (pH 7.4); purchased Peptide Institute, INC
T3 sequence (P05067 672-711): as the sequence (P05067 672-711 limits assumed) above
Description: The following experiment was carried out in order to examine whether amyloid in brain can be imaged by the compound of the present invention.
(1) Aβ1-40 (manufactured by Peptide Institute, INC.) was dissolved in phosphate buffer (pH 7.4) and shaken at 37° C. for 72 hours, to obtain 1 mg/mL of a suspension of aggregated Aβ (hereinafter referred to as amyloid suspension in this Example).
(2) 25 μL (corresponding to 25 μg) of the amyloid suspension was injected into an amygdaloid nucleus on one side of a male Wistar rat (7-week old). As a control, 25 μL of a phosphate buffered physiological saline solution (pH 7.4) was injected into an amygdaloid nucleus on the other side of the rat. The rats were examined 1 day after the injection of the amyloid suspension and the phosphate buffered physiological saline solution (pH 7.4).
This solution was injected into the rat through the tail vein (dosage: 0.5 mL, dosed radioactivity: 16 MBq equivalent).
(4) Brain was removed 60 minutes after the injection to prepare a brain slice of 10 μm in thickness with a microtome (type: CM3050S, manufactured by LEICA). The brain slice was exposed to an imaging plate for 20 hours, and then image analysis was carried out by use of a Bio-imaging Analyzer (type: BAS-2500; manufactured by FUJIFILM Corporation).

IC50 [1]: 1.8 nM
SMILES: FCCOc1ccc(-c2cn3cc(Br)ccc3n2)cc1 [Compound I-3, 6-bromo-2-[4′-(2″-fluoroethoxy)phenyl]imidazo[1,2-a]pyridine]

SMILES: FCCCOc1ccc(-c2cn3cc(Br)ccc3n2)cc1 [Compound I-1, 6-bromo-2-[4′-(3″-fluoropropoxy)phenyl]imidazo[1,2-a]pyridine]
IC50 [1]: 1.4 nM | Mutagenicity, TA98, With addition of S9mix [2]: Negative | Mutagenicity, TA98, Without addition of S9mix [2]: Negative | Mutagenicity, TA100, With addition of S9mix [3]: Negative | Mutagenicity, TA100, Without addition of S9mix [3]: Negative | Ames test judgment [4]: negative | Inhibition ratio (%) of binding of amyloid (amylin) to Thioflavin T ([5]; compound 1.5 μmol/L): 14.5% | Inhibition ratio (%) of binding of amyloid (amylin) to Thioflavin T ([5]; compound 15 μmol/L): 37.0% | Inhibition ratio (%) of binding of amyloid (amylin) to Thioflavin T ([5]; compound 30 μmol/L): 43.7%

SMILES: CC(=C(C#N)C#N)c1ccc2cc(N(C)CCF)ccc2c1 [FDDNP, 2-(1-{6-[(2-fluoroethyl)(methyl)amino]-2-naphthyl}ethylidene)malononitrile]
reverse mutation test [6]: positive

SMILES: FCCCOc1ccc(-c2cn3cc(I)cnc3n2)cc1 [Compound I-5, 2-[4′-(3″-fluoropropoxy)phenyl]-6-iodoimidazo[1,2-a]pyrimidine]
IC50 [1]: 55.4 nM | Mutagenicity, TA98, With addition of S9mix [2]: Negative | Mutagenicity, TA98, Without addition of S9mix [2]: Negative | Mutagenicity, TA100, With addition of S9mix [3]: Negative | Mutagenicity, TA100, Without addition of S9mix [3]: Negative | Ames test judgment [4]: negative

SMILES: CNc1ccc(/C=C/c2ccc(O)cc2)cc1 [SB-13, (E)-4-methylamino-4′-hydroxystilbene]
clearance from normal tissues [7]: it cannot be said that the clearance is sufficiently fast

SMILES: CN(C)c1ccc(-c2nc3ccc(I)cc3s2)cc1 [TZDM, 6-iodo-2-[4′-(N,N-dimethylamino)phenyl]benzothiazole]
clearance from normal tissues [8]: insufficient in clearance from normal tissues

SMILES: CN(C)c1ccc(-c2nc3ccc(I)cc3o2)cc1 [IBOX, 6-iodo-2-[4′-(N,N-dimethylamino)phenyl]benzoxazole]
clearance from normal tissues [8]: insufficient in clearance from normal tissues

SMILES: CN(C)c1ccc(/C=C/c2ccc(I)cc2)cc1 [m-I—SB, (E)-4-dimethylamino-4′-iodostilbene]
clearance from normal tissues [8]: insufficient in clearance from normal tissues

logPoctanol value [9]: 2.0 | Radioactive distribution per unit weight in brain, After 2 min. [10]: 1.20 % ID/g | Radioactive distribution per unit weight in brain, After 5 min. [10]: 0.75 % ID/g | Radioactive distribution per unit weight in brain, After 30 min. [10]: 0.18 % ID/g | Radioactive distribution per unit weight in brain, After 60 min. [10]: 0.12 % ID/g
SMILES: [18F]CCCOc1ccc(-c2cn3cc(Br)ccc3n2)cc1 [Compound I-8, 6-bromo-2-[4′-(3″-[^18F]fluoropropoxy)-phenyl]imidazo[1,2-a]pyridine]

SMILES: FCCCOc1ccc(-c2cn3cc(I)ccc3n2)cc1 [Compound I-2, 2-[4′-(3″-fluoropropoxy)phenyl]-6-iodoimidazo[1,2-a]pyridine]
IC50 [1]: 0.9 nM | Mutagenicity, TA98, With addition of S9mix [2]: Negative | Mutagenicity, TA98, Without addition of S9mix [2]: Negative | Mutagenicity, TA100, With addition of S9mix [3]: Negative | Mutagenicity, TA100, Without addition of S9mix [3]: Negative | Ames test judgment [4]: negative | Inhibition ratio (%) of binding of amyloid (amylin) to Thioflavin T ([5]; compound 1.5 μmol/L): 28.9% | Inhibition ratio (%) of binding of amyloid (amylin) to Thioflavin T ([5]; compound 15 μmol/L): 26.6% | Inhibition ratio (%) of binding of amyloid (amylin) to Thioflavin T ([5]; compound 30 μmol/L): 28.2%

SMILES: FCCCOc1ccc(-c2cn3cc([125I])ccc3n2)cc1 [Compound I-6, 2-[4′-(3″-fluoropropoxy)phenyl]-6-[^125I]iodoimidazo[1,2-a]pyridine]
slope of radioactive count on glass fiber relative to concentration of amyloid (index of intensity of binding to amyloid) [11]: greater than the slope for [^125I]-IMPY

SMILES: FCCCOc1ccc(-c2cn3cc([123I])ccc3n2)cc1 [Compound I-7, 2-[4′-(3″-fluoropropoxy)phenyl]-6-[^123I]iodoimidazo[1,2-a]pyridine]
Radioactive distribution per unit weight in brain, After 2 min. [10]: 1.10 % ID/g | Radioactive distribution per unit weight in brain, After 5 min. [10]: 0.75 % ID/g | Radioactive distribution per unit weight in brain, After 30 min. [10]: 0.12 % ID/g | Radioactive distribution per unit weight in brain, After 60 min. [10]: 0.05 % ID/g | accumulation of radioactivity on intracerebral amyloid (autoradiogram) [12]: possesses a property of accumulating on intracerebral amyloid and a capability of imaging intracerebral amyloid
